Experimental data taken from ChEMBL document CHEMBL4673202, “Design of Potent and Druglike Nonphenolic Inhibitors for Catechol O-Methyltransferase Derived from a Fragment Screening Approach Targeting the S-Adenosyl-l-methionine Pocket” (J Med Chem, 2016).
In brackets after ≈: the same amount, converted by molar mass.

Columns and labels:
[1] = target: T1, Catechol O-methyltransferase (Homo sapiens, UniProt P21964); assay: Inhibition of recombinant wild-type human COMT expressed in Escherichia coli BL21 using 4-nitrocatechol-Alexa488 as substrate in presence of cofactor SAM preincubated for 1 min followed by substrate addition and measured every 60 sec up to 180 times by fluorescence based microtiter plate reader analysis
T1 sequence (P21964 whole entry): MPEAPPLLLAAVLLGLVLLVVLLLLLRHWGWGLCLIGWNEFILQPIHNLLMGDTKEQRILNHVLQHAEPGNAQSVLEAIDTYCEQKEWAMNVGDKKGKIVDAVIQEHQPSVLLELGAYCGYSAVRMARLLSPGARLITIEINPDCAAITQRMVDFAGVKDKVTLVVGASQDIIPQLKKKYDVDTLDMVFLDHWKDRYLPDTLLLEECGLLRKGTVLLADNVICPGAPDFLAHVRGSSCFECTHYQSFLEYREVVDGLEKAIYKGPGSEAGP

[2] = Solubility of compound; assay type: physicochemical
[3] = Distribution coefficient, log D of compound in octanol and water at pH 7.4; assay type: physicochemical

**Q.** For `Cc1nc(-c2ccccc2)sc1-c1cc[nH]n1`, which IC50 [1] is on record?
**A.** 24 µM

**Q.** With `c1ccc(-c2ncc(-c3cc[nH]n3)s2)cc1` as the compound, how does the IC50 [1] read?
**A.** > 625 µM

**Q.** Which solubility [2] does the source give for `COc1ccc(Cc2cc(-c3sc(C)nc3C)n[nH]2)cc1` here?
**A.** 2 µg/mL (≈ 6.68 µM)

**Q.** And the logD [3]?
**A.** 3.7

**Q.** What about the IC50 [1] of the same compound?
**A.** 1 µM

**Q.** What does the source list for `CCc1cc(-c2sc(C)nc2C)n[nH]1`?
**A.** logD [3]: 2.6; IC50 [1]: 20 µM

**Q.** With `Cc1nc(C2CC2)c(-c2cc[nH]n2)s1` as the compound, how does the IC50 [1] read?
**A.** > 625 µM

**Q.** With `CCc1nc(C)c(-c2cc[nH]n2)s1` as the compound, how does the IC50 [1] read?
**A.** 21 µM

**Q.** Which results are given for `Cc1nc(C)c(-c2cc(Cc3ccccc3)[nH]n2)s1`?
**A.** solubility [2]: 15 µg/mL (≈ 55.7 µM); logD [3]: 3.6; IC50 [1]: 2 µM

**Q.** With `COc1ccc([C@H](C)c2cc(-c3sc(C)nc3C)n[nH]2)cc1` as the compound, how does the solubility [2] read?
**A.** 5 µg/mL (≈ 16 µM)

**Q.** What about the logD [3] of the same compound?
**A.** 3.9

**Q.** And the IC50 [1]?
**A.** 0.86 µM

**Q.** With `CCC(c1ccccc1)c1cc(-c2sc(C)nc2C)n[nH]1` (stereo not given) as the compound, how does the solubility [2] read?
**A.** 24 µg/mL (≈ 80.7 µM)

**Q.** What about the logD [3] of the same compound?
**A.** 4.3

**Q.** And the IC50 [1]?
**A.** 21 µM

**Q.** For `Cc1nc(C)c(-c2cc(-c3ccccc3)[nH]n2)s1`, which IC50 [1] is on record?
**A.** 130 µM

**Q.** Which results are given for `Cc1nc(C)c(-c2cc([C@H](C)c3ccccc3)[nH]n2)s1`?
**A.** solubility [2]: 5 µg/mL (≈ 17.6 µM); logD [3]: 4; IC50 [1]: 0.7 µM

**Q.** With `Cc1nc(Cc2ccccc2)sc1-c1cc[nH]n1` as the compound, how does the IC50 [1] read?
**A.** > 425 µM

**Q.** Which IC50 [1] does the source give for `Cc1nc(C)c(-c2cc([C@@H](C)c3ccccc3)[nH]n2)s1` here?
**A.** 1.1 µM

**Q.** What does the source list for `COc1ccc(C2(c3cc(-c4sc(C)nc4C)n[nH]3)CC2)cc1`?
**A.** solubility [2]: 2 µg/mL (≈ 6.15 µM); logD [3]: 4.1; IC50 [1]: 0.075 µM

**Q.** With `Cc1ccc(-c2nc(C)c(-c3cc[nH]n3)s2)cc1` as the compound, how does the IC50 [1] read?
**A.** 11 µM

**Q.** Which results are given for `Cc1nc(C)c(-c2cc(C3(c4ccccc4)CC3)[nH]n2)s1`?
**A.** solubility [2]: 1 µg/mL (≈ 3.39 µM); logD [3]: 4.2; IC50 [1]: 0.21 µM

**Q.** Which solubility [2] does the source give for `Cc1nc(C)c(-c2cc(Cc3ccc(-c4cnn(C)c4)cc3)[nH]n2)s1` here?
**A.** 4 µg/mL (≈ 11.4 µM)

**Q.** And the logD [3]?
**A.** 3.9

**Q.** What about the IC50 [1] of the same compound?
**A.** 1.3 µM

**Q.** With `Cc1nc(C)c(-c2cc(C(C)c3ccccc3)[nH]n2)s1` (stereo not given) as the compound, how does the solubility [2] read?
**A.** 3 µg/mL (≈ 10.6 µM)

**Q.** And the logD [3]?
**A.** 3.9

**Q.** What about the IC50 [1] of the same compound?
**A.** 0.9 µM

**Q.** With `Cc1nc(C)c(-c2cc(Cc3ccc(-c4ccccc4)cc3)[nH]n2)s1` as the compound, how does the IC50 [1] read?
**A.** 3.2 µM

**Q.** What does the source list for `Cc1nc(C)c(-c2cc(CCc3ccccc3)[nH]n2)s1`?
**A.** solubility [2]: 4 µg/mL (≈ 14.1 µM); logD [3]: 4; IC50 [1]: 8 µM

**Q.** What does the source list for `Cc1nc(C)c(-c2cc(C(C)(C)c3ccccc3)[nH]n2)s1`?
**A.** solubility [2]: 4 µg/mL (≈ 13.4 µM); logD [3]: 4.1; IC50 [1]: 1.1 µM

**Q.** Which results are given for `COc1ccc([C@@H](C)c2cc(-c3sc(C)nc3C)n[nH]2)cc1`?
**A.** solubility [2]: 5 µg/mL (≈ 16 µM); logD [3]: 4; IC50 [1]: 0.47 µM

**Q.** What does the source list for `Cc1nc(C)c(-c2cc(CCCc3ccccc3)[nH]n2)s1`?
**A.** solubility [2]: 8 µg/mL (≈ 26.9 µM); logD [3]: 4.4; IC50 [1]: 34 µM
